Results from patent publication US6743895B1, “Bone stimulating factor” (Osteopharm Inc., priority 1995, dated 2004).
Residues, ends and D or L forms follow the SMILES beside them. No end group written: not given here.

Key:
[1] = system: rats; experiment: Bone mineral apposition rate in intact rats after subcutaneous injection of polypeptide, tetracycline labelling; type: in vivo, Sprague-Dawley rats
Experimental: Experiments were carried out on three groups of six rats weighing between 295 and 320 g. A 1 mg per ml solution of the modified peptide (SEQ ID NO:3) was prepared in 0.1% acetic acid. A 1 mg per ml solution of the normal peptide (SEQ ID NO:1) was prepared in 0.1% acetic acid. Each rat of a first of the groups had subcutaneously injected into its right thigh 0.1 ml of the modified peptide solution. Similarly, each rat of the second group was injected with 0.1 ml of the normal peptide solution. Each rat of the third group, the control group, was injected with 0.1 ml of 0.1% acetic acid solution. Immediately following these injections, each rat was injected intramuscularly with 24 mg per Kg body weight of tetracycline hydrochloride dissolved in 0.5 ml of water. A second dose of tetracycline hydrochloride was administered 48 hours later. The animals were sacrificed 24 hours after the second dose by CO2 narcosis. The lower metaphysis of the right femur was dissected out and fixed in a 10% aqueous solution of formaldehyde buffered at pH 7.2 by acetate buffer. Bone sections were prepared for measurement as described above.
Sprague-Dawley rats were used as test animals to determine bone mineral apposition rate, as described above. Male rats having weights between 280 and 380 g were subject to subcutaneous injection after one week of acclimatization. Each animal was injected with 200 μl of a 0.1% acetic acid test solution, solutions having been prepared at concentrations to obtain a dosage of about 25 nmol of polypeptide per animal. Each test dose was immediately followed by intramuscular injection of 24 mg per Kg of body weight of tetracycline hydrochloride. A second injection of tetracycline was made 48 hours later.
Bone mineral apposition rates were determined by measurements of the lower metaphysis of the right femur, as described previously. Results obtained in the two sets of experiments are summarized in Tables Seven and Eight and graphically depicted in FIGS. 8 and 9.
Bone mineral apposition rates were again determined by measurement of the lower metaphysis of the right femur. Results obtained are summarized in Table Nineteen and graphically depicted in FIG. 12. […]
In a final set of experiments, a polypeptide having the ninth amino acid, cysteine, replaced by the amino acid tyrosine, SEQ ID NO:43, was synthesized and tested for bone stimulatory activity. Four rats (about 300 grams) were each administered with 100 nmoles of material (in 400 μl 20 mM acetic acid solution) by subcutaneous injection along with tetracycline (5 mg per animal in 400 μl water), as described above. A second dosage of tetracycline was administered 48 hours later and the animals sacrificed 24 hours after that. The lower metaphysis of the right femur was examined to determine the bone mineral apposition rate. For comparison, experiments were performed using a control in which no compound was present in the acetic acid solution.

[2] = Stability of dissolved polypeptides (capillary electrophoresis, RP-HPLC); type: physicochemical; conditions: for Stability relative to SEQ ID NOs: 7 or 24: general summary of stability tests; for Stability when dissolved in dilute acids: 5 mM acetic acid, 1 mg/ml, analyzed weekly by capillary electrophoresis
Experimental: Each of the polypeptides having the sequences identified as SEQ ID NO: 7 and 24 was dissolved in 5 mM acetic acid to a final concentration of 1 mg/ml and incubated at 37° C. The peptide compositions were analyzed weekly by capillary electrophoresis on a P/ACE 6000 system (Beckman) using 50 mM sodium phosphate pH 2.5 as the running buffer on a 57 cm long×75 μm internal diameter capillary. The incubated peptide (20 μl) was diluted with 80 μl of running buffer, placed in a 500 μl vial prior to injection onto the P/ACE using pressure for 20 seconds. Following electrophoresis of the incubated peptide at 30 kV for 15 min a second run was carried out using freshly dissolved peptide as a control.
Each of the polypeptides was dissolved in 20 mM sodium phosphate pH 3.0, 20 mM ammonium acetate pH 4.0, 20 mM ammonium acetate pH 5.0, 20 mM MES pH 6.0, 20 mM sodium phosphate pH 7.0, 20 mM sodium phosphate pH 7.5, 20 mM sodium phosphate pH 8.0, 20 mM ammonium acetate pH 8.5 or 20 mM ammonium acetate pH 9.5 to a final concentration of 1 mg/ml. The peptide was incubated at 37° C. and the peptide assayed weekly by separation on P/ACE as described above. Some samples were separated by RP-HPLC and the isolated peaks subjected to mass spectroscopic analysis.
The protected polypeptide identified as SEQ ID NO:24 was dissolved in 20 mM or 250 mM ammonium acetate pH 4.5 to a final concentration of 1 mg/ml. In some experiments the buffer was supplemented with 20 mM EDTA. The peptide solution was then incubated at −70° C., −20° C., 4° C. or room temperature (22° C.). Samples were assayed weekly by electrophoresis on the P/ACE as described above and/or by RP-HPLC.
The stability of each of the polypeptides having the amino acid sequences identified as SEQ ID NOs: 25, 26 and 27 was tested as described above.

[3] = system: ovariectomized rats; experiment: Full autopsy after four week administration to ovariectomized rats; type: in vivo, Sprague-Dawley rats; conditions: 100 μg s.c. every 24 hours for 28 days
Experimental: The six ovariectomized rats were injected subcutaneously with 100 μl of a 0.1% acetic acid solution containing 100 μg of the chemically synthesized peptide (SEQ ID NO:1) every 24 hours for 28 days. On day 25, a tetracycline hydrochloride solution was injected intramuscularly into each rat so as to give 24 mg per Kg of body weight, as described previously. On day 27, a second dose of tetracycline hydrochloride was injected and the rats were sacrificed on the 28th day.
Post-mortem blood was taken by cardiac puncture and serum frozen until analyzed. A full autopsy was performed on each rat.

[4] = system: ovariectomized rats; experiment: Bone mineral (calcium) content by DEXA in ovariectomized rats; type: in vivo, rat; conditions: 25 nmoles s.c. each day
Experimental: Ovariectomies were performed on rats as described above. A 0.1% acetic acid solution containing 25 nmoles of the polypeptide was administered subcutaneously to each rat each day for the duration of the experiment. […] Another group of rats was treated for eight weeks beginning eight weeks after ovariectomization. Rats were sacrificed at the end of the treatment period and dissected and post mortem assessment of bone mineral content was carried out. The lumbar spines L1-L4 were cleaned with a power nylon brush to remove the attached muscle. They were placed ventral side down under 3 cm of distilled water in a polypropylene container and scanned by a dual energy x-ray absorptometer (DEXA). Hologic 100, to determine the calcium content in grams. The right femur of each rat was also dissected out intact and cleared of the attached muscles with a power nylon brush. It was scanned dorsal side down under 3 cm of distilled water by DEXA. Four regions of the femur were scanned, as indicated in FIGS. 10 and 11: A, proximal end; B, diaphysis; C, distal end; and D, neck. The bone mineral (i.e., calcium) content in grams was estimated in the four zones of the femur based on absorption and using an internal standard of the machine.

[5] = about 125 nmoles of polypeptide per Kg of body weight (Table Twenty)
[6] = 20 mM buffers pH 3.0 to 9.5, 1 mg/ml, 37° C.

CH3CO-Arg Thr Gln Glu His Thr Ala Glu Cys Lys-NH2 (Ac-RTQEHTAECK-NH2) [SEQ ID NO:26]
Mean Bone Apposition Rate ([1]; Table Twenty-One, FIG. 14, N=4): 2.88 μm/day
Mean Bone Apposition Rate ([1]; approximately 500 gm male Sprague-Dawley rats, 300 nmol/kg bodyweight (Table Twenty-Two)): 2.04 μm/day
Stability relative to SEQ ID NOs: 7 or 24 [2]: more stable
Stability in solution ([2]; pH 2.5-3.0, incubated at 37° C.): stable

SEQ ID NO:24: ten amino acid sequence of SEQ ID NO:9, acetylated at the amino terminus and amidated at the carboxy terminus (Ac-RTNEHTADCK-NH2)
Mean Bone Apposition Rate ([1]; Table Twenty-One, FIG. 14, N=4): 2.04 μm/day
Mean Bone Apposition Rate [1, 5]: 2.72 μm/day
Stability when dissolved in dilute acids ([2]; 37° C.): degraded overtime
pH above which the peptide dimerized [2, 6]: > 6.0
pH at which the peptide was most stable [2, 6]: ~4.5
pH below which the peptide degraded [2, 6]: < 4.0
Stability as a powder and when dissolved in pH 4.5 buffer ([2]; 20 mM or 250 mM ammonium acetate pH 4.5, 1 mg/ml): very stable
Dissolved peptide compared with dry peptide stored at −70° C. ([2]; ammonium acetate pH 4.5, 1 mg/ml, incubated at 4° C., −20° C. or −70° C., up to 28 days): unchanged
Time after which modification of the peptide was observed (RP-HPLC) ([2]; ammonium acetate pH 4.5, 1 mg/ml, room temperature (22° C.)): 7 days

CH3CO-Arg Thr Asn Glu His Thr Ala Glu Cys Lys-NH2 (Ac-RTNEHTAECK-NH2) [SEQ ID NO:25]
Mean Bone Apposition Rate ([1]; Table Twenty-One, FIG. 14, N=4): 1.94 μm/day
Stability relative to SEQ ID NOs: 7 or 24 [2]: more stable
Stability in solution ([2]; pH 2.5-3.0 for 20 days): stable

CH3CO-Arg Thr Gln Glu His Thr Ala Asp Cys Lys-NH2 (Ac-RTQEHTADCK-NH2) [SEQ ID NO:27]
Mean Bone Apposition Rate ([1]; Table Twenty-One, FIG. 14, N=4): 1.72 μm/day
Stability in solution ([2]; all pHs tested, 37° C. for 3 days): unstable
Stability relative to SEQ ID NOs: 7 or 24 [2]: significantly less stable

CC[C@H](C)[C@H](NC(=O)CN)C(=O)NCC(=O)N[C@@H](CCCCN)C(=O)N[C@@H](CCCNC(=N)N)C(=O)N[C@H](C(=O)N[C@@H](CC(N)=O)C(=O)N[C@@H](CCC(=O)O)C(=O)N[C@@H](Cc1c[nH]cn1)C(=O)N[C@H](C(=O)N[C@@H](C)C(=O)N[C@@H](CC(=O)O)C(=O)N[C@@H](CS)C(=O)N[C@@H](CCCCN)C(=O)N[C@H](C(=O)N[C@@H](CCCCN)C(=O)N1CCC[C@H]1C(=O)N[C@@H](CC(N)=O)C(=O)N[C@H](C(=O)N[C@@H](CC(C)C)C(=O)N[C@@H](Cc1c[nH]cn1)C(=O)N[C@@H](CCCCN)C(=O)N[C@@H](CCCCN)C(=O)N[C@@H](C)C(=O)N[C@@H](C)C(=O)N[C@@H](CCC(=O)O)C(=O)N[C@H](C(=O)N[C@@H](CC(C)C)C(=O)N[C@@H](CCSC)C(=O)N[C@H](C(=O)N[C@@H](CC(C)C)C(=O)N[C@@H](CC(=O)O)C(=O)N[C@@H](CCC(N)=O)C(=O)N[C@@H](CC(N)=O)C(=O)N[C@@H](CCC(N)=O)C(=O)N1CCC[C@H]1C(=O)O)C(C)C)[C@@H](C)O)[C@@H](C)O)[C@@H](C)CC)[C@@H](C)O)[C@@H](C)O [SEQ ID NO:1] (H-GIGKRTNEHTADCKIKPNTLHKKAAETLMVLDQNQP-OH)
Full autopsy findings [3]: No ill effects were observed

GIGKRTNEHTADCKI [SEQ ID NO:7]
Bone Mineral Content Measured in Distal End of Femur, Mean ([4]; Administered over 56 Days): 0.1347 g
Bone Mineral Content Measured in Femoral Diaphysis, Mean ([4]; Administered over 56 Days): 0.2091 g
Bone Mineral Content Measured in Femoral Neck, Mean ([4]; Administered over 56 Days): 0.0274 g
Bone Mineral Content Measured in Proximal End of Femur, Mean ([4]; Administered over 56 Days): 0.1328 g
Bone Mineral Content Measured in Spine L1-L4, Mean ([4]; Administered over 56 Days): 0.4606 g
Bone Mineral Content Measured in Distant End of Femur, Mean ([4]; Administered over 100 Days): 0.1424 g
Bone Mineral Content Measured in Femoral Diaphysis, Mean ([4]; Administered over 100 Days): 0.2347 g
Bone Mineral Content Measured in Femoral Neck, Mean ([4]; Administered over 100 Days): 0.0351 g
Bone Mineral Content Measured in Proximal End of Femur, Mean ([4]; Administered over 100 Days): 0.1411 g
Bone Mineral Content Measured in Spine L1-L4, Mean ([4]; Administered over 100 Days): 0.4758 g
Mean Bone Apposition Rate [1, 5]: 2.18 μm/day
Bone mineral apposition rate, Mean ([1]; male Sprague-Dawley rats 280-380 g, about 25 nmol per animal s.c., first set (Table Seven)): 1.41 μm per day
Stability when dissolved in dilute acids ([2]; 37° C.): degraded overtime
pH at which the peptide was most stable [2, 6]: 4.5
